Data set [1] deals with CNS. Briefly: Neuropsychopharmacological profile as a whole. Type of data set: in vivo, mice and rats. As to the method:
In the neuropsychopharmacological study which follows, a solution of CRL 41 153 in distilled water (pH 1.5) was administered intraperitoneally in a volume of 20 ml/kg to male mice and 5 ml/kg to male rats.

A short description of data set [2]: pH of solutions in distilled water. It counts as physicochemical. To be noted: administered solution in distilled water, concentration not given. On the procedure:
The neuropsychopharmacological study was undertaken according to the procedures described above for CRL 41 153, CRL 41 213 being adminstered intraperitoneally, in solution in distilled water, in a volume of 20 ml/kg to male mice and a volume of 5 ml/kg to male rats, and the pH of the injected solution varying with the concentration of CRL 41 213 according to the data given in Table II below.

The next data set has as its system rats. Briefly: Interaction with amphetamine. It counts as in vivo, rat. The note with it: i.p. As to the method:
Amphetamine (2 mg/kg) is injected intraperitoneally into groups of 6 rats 30 minutes after the administration of CRL 41 153. […] 4 mg/kg and 16 mg/kg, CRL 41 153 potentiates the intensity and duration of the stereotypies induced by amphetamine.

For data set [3], the system named is mice. In words: Asphyxiant anoxia (gallamine triiodoethylate). The note with it: i.p., curarizing agent. It counts as in vivo, mouse. On the procedure:
Groups of 10 mice receive CRL 41 153 half an hour before the intraperitoneal administration of 32 mg/kg of gallamine triiodoethylate (reference curarizing agent).

The subject of data set [4] is CNS. Briefly: Complementary tests by oral (gastric) administration. Type of data set: in vivo.
Data set [5] deals with mice. Briefly: Intergroup aggressiveness. Type of data set: in vivo, mouse. The note with it: i.p. As to the method:
After they have stayed for 3 weeks in the two halves of a cage divided by an opaque partition, groups of 3 mice receive CRL 41 153. Half an hour later, the two groups from the same cage are brought together by removal of the partition, and the number of fights which occur in 10 minutes is noted.

Entries after “also recorded” stand apart in the source; their conditions may differ. Counter-ions that a name gives are not always drawn.

Regarding `CC(C)NC(C)C(=O)c1ccc(N)cc1` (stereo not drawn) [CRL 41 153, 1-(4-aminophenyl)-2-isopropylaminopropanone dihydrochloride], in the data set on CNS [1] (conclusion of the tests), the “Anticonvulsant effects (overall)” value is reported as “anticonvulsant effects: at a high dose”, the “Antidepressant effects (overall)” value is reported as “behaves as an antidepressant for the CNS”, the “Stimulant effects (overall)” value is given as “distinct stimulant component” and the “α-adrenergic stimulant effects (overall)” value is listed as “peripheral α-adrenergic stimulant effects”. Also, in the data set on CNS [1] (species and dose not stated), the “Peripheral α-adrenergic signs (mydriasis, salivation, lacrimation, exophthalmos)” value was “mydriasis (with neither piloerection nor salivation)”. The same molecule came in with a pH in data set [2] of 1.5. For the same molecule, the “Effect on stereotypies induced by amphetamine” value with rats is “at doses of 1 mg/kg. 4 mg/kg and 16 mg/kg, CRL 41 153 potentiates the intensity and duration of the stereotypies induced by amphetamine”. Further, in the data set on mice [3], the “Time taken for convulsions to occur” value was “at a dose of 32 mg/kg, CRL 41 153 reduces the time taken for convulsions to occur” and the “Time taken for death to occur” value was “does not change the time taken for death to occur”. Moreover, in the data set with CNS [4] (gastric), the “Hypothermia induced by apomorphine” value is given as “antagonism of the hypothermia induced by apomorphine”, the Motility result is “hypermotility” and the “Sleep induced by barbital” value is recorded as “reduction in the sleep induced by barbital”. Also, the “Action on gastric (oral) administration compared with intraperitoneal” value in the data set on CNS [4] (gastric vs i.p., dihydrochloride) is recorded as “very active substance; also recorded: same types of action on gastric administration as after intraperitoneal administration”. Besides, the minimal effective dose in the data set with CNS [4] (po, gastric, read-out: Dose as from which antidepressant and stimulant and/or arousing effects appear) was at least 4 mg/kg. For the same molecule, the “Number of fights / intergroup aggressiveness” value in the data set with mice [5] is “at a dose of 8 mg/kg, CRL 41 153 reduces the number of fights”.

For the origin of these results see patent US4980377A, “1-(aminophenyl)-2-aminopropanone derivatives” (Laboratoire L. Lafon, priority 1984, dated 1990).
